The source of these data is ChEMBL document CHEMBL1139907, “Further studies on hepatitis C virus NS5B RNA-dependent RNA polymerase inhibitors toward improved replicon cell activities: benzimidazole and structurally related compounds bearing the 2-morpholinophenyl moiety” (Bioorg Med Chem Lett, 2007).

Usually EC50 stands for the midpoint of the concentration-response curve. Higher therefore signals a need for much substance. One may read the IC50 as the concentration needed to halve the response being measured. As usually defined, the CC50 is the concentration at which the toxic effect on the cells reaches its halfway point.

One data set deals with Hepatitis C virus. Description: Antiviral activity against HCV in Huh-5-2 cells by replicon assay. In kind it is functional, organism-based, Hepacivirus hominis.
Details: not given
(Replicon systems follow genome replication, usually without infectious particles.)
With `CC(=O)N1CCN(c2ccc(N3CCCC3=O)cc2COc2ccc(-c3nc4cc(C(=O)O)ccc4n3C3CCCCC3)c(F)c2)CC1`, the EC50 was determined as 950 nM.

In turn, `CC(=O)N(c1ccc(N2CCOCC2)c(COc2ccc(-c3nc4cc(C(=O)O)ccc4n3C3CCCCC3)c(F)c2)c1)C(C)C` yielded an EC50 of 270 nM.

Take `O=C(O)c1ccc2c(c1)nc(-c1ccc(OCc3cc(N4CCCC4=O)ccc3N3CCC(O)CC3)cc1F)n2C1CCCCC1`: the EC50 was 1400 nM.

In turn, `COCCN(C)c1ccc(N2CCCC2=O)cc1COc1ccc(-c2nc3cc(C(=O)O)ccc3n2C2CCCCC2)c(F)c1` gave an EC50 of 1300 nM.

For `COCC(=O)N(C)c1ccc(N2CCOCC2)c(COc2ccc(-c3nc4cc(C(=O)O)ccc4n3C3CCCCC3)c(F)c2)c1`, the response was half-maximal at 1200 nM (EC50).

`O=C(O)c1ccc2c(c1)cc(-c1ccc(OCc3cc(N4CCCC4=O)ccc3N3CCOCC3)cc1)n2C1CCCCC1` showed an EC50 of 210 nM.

As to `COc1ccc(N2CCCC2=O)cc1COc1ccc(-c2nc3cc(C(=O)O)ccc3n2C2CCCCC2)c(F)c1`, the response was half-maximal at 1400 nM (EC50).

As to `O=C(O)c1ccc2c(c1)nc(-c1ccc(OCc3cc(N4CCCC4=O)ccc3N3CCOCC3)cc1F)n2C1CCCCC1`, the EC50 stood at 310 nM.

In the case of `CN(C)C(=O)c1ccc(N2CCOCC2)c(COc2ccc(-c3nc4cc(C(=O)O)ccc4n3C3CCCCC3)c(F)c2)c1`, the EC50 came out at 440 nM.

Consider `O=C(O)c1ccc2c(c1)nc(-c1ccc(OCc3ccccc3N3CCOCC3)cc1F)n2C1CCCCC1`, for which the EC50 turned out to be 1000 nM.

Take `O=C(O)c1ccc2c(c1)nc(-c1ccc(OCc3cc(N4CCCCC4=O)ccc3N3CCOCC3)cc1F)n2C1CCCCC1`: the EC50 came out at 580 nM.

`O=C(O)c1ccc2c(c1)nc(-c1ccc(OCc3cc(N4CCCS4(=O)=O)ccc3N3CCOCC3)cc1F)n2C1CCCCC1` returned an EC50 of 550 nM.

Biological target in a further data set: not listed separately
Briefly: Inhibition of HCV NS5B polymerase.
Details: not given
Details: species or system Hepacivirus hominis.
In turn, `CC(=O)N1CCN(c2ccc(N3CCCC3=O)cc2COc2ccc(-c3nc4cc(C(=O)O)ccc4n3C3CCCCC3)c(F)c2)CC1` registered an IC50 of 110 nM.

Compound `CC(=O)N(c1ccc(N2CCOCC2)c(COc2ccc(-c3nc4cc(C(=O)O)ccc4n3C3CCCCC3)c(F)c2)c1)C(C)C` displayed an IC50 of 42 nM.

As to `O=C(O)c1ccc2c(c1)nc(-c1ccc(OCc3cc(N4CCCC4=O)ccc3N3CCC(O)CC3)cc1F)n2C1CCCCC1`, the IC50 stood at 150 nM.

Regarding `COCCN(C)c1ccc(N2CCCC2=O)cc1COc1ccc(-c2nc3cc(C(=O)O)ccc3n2C2CCCCC2)c(F)c1`, half-maximal inhibition (IC50) required 260 nM.

In the case of `COCC(=O)N(C)c1ccc(N2CCOCC2)c(COc2ccc(-c3nc4cc(C(=O)O)ccc4n3C3CCCCC3)c(F)c2)c1`, inhibition was half-maximal at 99 nM (IC50).

Compound `O=C(O)c1ccc2c(c1)cc(-c1ccc(OCc3cc(N4CCCC4=O)ccc3N3CCOCC3)cc1)n2C1CCCCC1` displayed an IC50 of 30 nM.

As to `COc1ccc(N2CCCC2=O)cc1COc1ccc(-c2nc3cc(C(=O)O)ccc3n2C2CCCCC2)c(F)c1`, 410 nM corresponded to half-maximal inhibition (IC50).

For the compound `O=C(O)c1ccc2c(c1)nc(-c1ccc(OCc3cc(N4CCCC4=O)ccc3N3CCOCC3)cc1F)n2C1CCCCC1`, the IC50 is 66 nM.

`CN(C)C(=O)c1ccc(N2CCOCC2)c(COc2ccc(-c3nc4cc(C(=O)O)ccc4n3C3CCCCC3)c(F)c2)c1` displayed an IC50 of 68 nM.

With `O=C(O)c1ccc2c(c1)nc(-c1ccc(OCc3ccccc3N3CCOCC3)cc1F)n2C1CCCCC1`, the IC50 turned out to be 130 nM.

`O=C(O)c1ccc2c(c1)nc(-c1ccc(OCc3cc(N4CCCCC4=O)ccc3N3CCOCC3)cc1F)n2C1CCCCC1` had an IC50 of 90 nM.

`O=C(O)c1ccc2c(c1)nc(-c1ccc(OCc3cc(N4CCCS4(=O)=O)ccc3N3CCOCC3)cc1F)n2C1CCCCC1`: half-maximal inhibition (IC50) required 71 nM.

Tested on in a further data set: not listed separately
Description: Cytotoxicity against Huh-5-2 cells. The settings on record: human. It counts as cell-based.
As to `CC(=O)N1CCN(c2ccc(N3CCCC3=O)cc2COc2ccc(-c3nc4cc(C(=O)O)ccc4n3C3CCCCC3)c(F)c2)CC1`, the cytotoxic concentration (CC50) is above 20000 nM.

Take `CC(=O)N(c1ccc(N2CCOCC2)c(COc2ccc(-c3nc4cc(C(=O)O)ccc4n3C3CCCCC3)c(F)c2)c1)C(C)C`: the half-maximal cytotoxic concentration (CC50) was above 20000 nM.

As to `O=C(O)c1ccc2c(c1)nc(-c1ccc(OCc3cc(N4CCCC4=O)ccc3N3CCC(O)CC3)cc1F)n2C1CCCCC1`, the CC50 is above 20000 nM.

`COCCN(C)c1ccc(N2CCCC2=O)cc1COc1ccc(-c2nc3cc(C(=O)O)ccc3n2C2CCCCC2)c(F)c1` gave a CC50 above 20000 nM.

`COCC(=O)N(C)c1ccc(N2CCOCC2)c(COc2ccc(-c3nc4cc(C(=O)O)ccc4n3C3CCCCC3)c(F)c2)c1` showed a CC50 above 20000 nM.

`O=C(O)c1ccc2c(c1)cc(-c1ccc(OCc3cc(N4CCCC4=O)ccc3N3CCOCC3)cc1)n2C1CCCCC1`: the CC50 was above 20000 nM.

`COc1ccc(N2CCCC2=O)cc1COc1ccc(-c2nc3cc(C(=O)O)ccc3n2C2CCCCC2)c(F)c1` had a CC50 above 20000 nM.

Take `O=C(O)c1ccc2c(c1)nc(-c1ccc(OCc3cc(N4CCCC4=O)ccc3N3CCOCC3)cc1F)n2C1CCCCC1`: the CC50 is above 20000 nM.

With `CN(C)C(=O)c1ccc(N2CCOCC2)c(COc2ccc(-c3nc4cc(C(=O)O)ccc4n3C3CCCCC3)c(F)c2)c1`, the CC50 is above 20000 nM.

The compound `O=C(O)c1ccc2c(c1)nc(-c1ccc(OCc3ccccc3N3CCOCC3)cc1F)n2C1CCCCC1` displayed a CC50 above 20000 nM.

`O=C(O)c1ccc2c(c1)nc(-c1ccc(OCc3cc(N4CCCCC4=O)ccc3N3CCOCC3)cc1F)n2C1CCCCC1` had a CC50 above 20000 nM.

`O=C(O)c1ccc2c(c1)nc(-c1ccc(OCc3cc(N4CCCS4(=O)=O)ccc3N3CCOCC3)cc1F)n2C1CCCCC1` returned a CC50 above 20000 nM.

A further data set concerns Hepacivirus hominis. Description: Ratio of EC50 of HCV to IC50 for HCV NS5B polymerase.
Details: not given
With `CC(=O)N1CCN(c2ccc(N3CCCC3=O)cc2COc2ccc(-c3nc4cc(C(=O)O)ccc4n3C3CCCCC3)c(F)c2)CC1`, the Ratio amounted to 8.6.

Consider `CC(=O)N(c1ccc(N2CCOCC2)c(COc2ccc(-c3nc4cc(C(=O)O)ccc4n3C3CCCCC3)c(F)c2)c1)C(C)C`, for which the Ratio was determined as 6.4.

On to `O=C(O)c1ccc2c(c1)nc(-c1ccc(OCc3cc(N4CCCC4=O)ccc3N3CCC(O)CC3)cc1F)n2C1CCCCC1`, for which the Ratio stood at 9.3.

For `COCCN(C)c1ccc(N2CCCC2=O)cc1COc1ccc(-c2nc3cc(C(=O)O)ccc3n2C2CCCCC2)c(F)c1`, the Ratio was 5.

Regarding `COCC(=O)N(C)c1ccc(N2CCOCC2)c(COc2ccc(-c3nc4cc(C(=O)O)ccc4n3C3CCCCC3)c(F)c2)c1`, the Ratio was 12.

As to `O=C(O)c1ccc2c(c1)cc(-c1ccc(OCc3cc(N4CCCC4=O)ccc3N3CCOCC3)cc1)n2C1CCCCC1`, the Ratio was determined as 7.

As for `COc1ccc(N2CCCC2=O)cc1COc1ccc(-c2nc3cc(C(=O)O)ccc3n2C2CCCCC2)c(F)c1`, the Ratio came out at 3.4.

For `O=C(O)c1ccc2c(c1)nc(-c1ccc(OCc3cc(N4CCCC4=O)ccc3N3CCOCC3)cc1F)n2C1CCCCC1`, the Ratio turned out to be 4.7.

Consider `CN(C)C(=O)c1ccc(N2CCOCC2)c(COc2ccc(-c3nc4cc(C(=O)O)ccc4n3C3CCCCC3)c(F)c2)c1`, for which the Ratio amounted to 6.5.

Consider `O=C(O)c1ccc2c(c1)nc(-c1ccc(OCc3ccccc3N3CCOCC3)cc1F)n2C1CCCCC1`, for which the Ratio was 7.7.

Turning to `O=C(O)c1ccc2c(c1)nc(-c1ccc(OCc3cc(N4CCCCC4=O)ccc3N3CCOCC3)cc1F)n2C1CCCCC1`, the Ratio was determined as 6.4.

Regarding `O=C(O)c1ccc2c(c1)nc(-c1ccc(OCc3cc(N4CCCS4(=O)=O)ccc3N3CCOCC3)cc1F)n2C1CCCCC1`, the Ratio was 7.7.
